Assay results as given in US8735601B2, “Pentamethine cyanine fluorescent dye with N-substituting at β-position of conjugated chain” (Dalian University of Technology, priority 2010, dated 2014).

Assays:
[1] = Measurement of fluorescence quantum yield (Rhodamine B in ethanol as reference); format: physicochemical
[2] = Absorption and emission spectra of dyes in different solvents; format: physicochemical; parameters: key to Δλ1 / Δλ2: Stokes shift in nm; ε1 (molar extinction coefficient) / ε2 (molar extinction coefficient): scale not given here; details: for Δλ1: Stokes shift to absorption peak 1; for Δλ2: Stokes shift to absorption peak 2
Excerpt: In the present invention, compounds IIa to IIg were synthesized based on compound II, and their spectral properties were investigated. Compared with the traditional pentamethine cyanine dye, for the novel pentamethine cyanine dye with N-substituting at β-position (deviated position), it was observed that, evident blue shift of absorption and emission wavelengths occurred, absorption wavelength blue shifted even largely than that of emission wavelength, absorption spectrum and fluorescence spectrum were no longer mirror-symmetric and had two absorption peaks and a single emission peak, and larger Stokes shift (minimum 60 and 150 nm, and maximum 90 and 230 nm) appeared.

CCN1/C(=C/C=C/C(=C/C2=[N+](CC)c3ccccc3C2(C)C)N(Cc2ccccc2)Cc2ccccc2)C(C)(C)c2ccccc21 [Dye IIf]
Φ1 (fluorescence quantum yield) ([1]; solvent DCM): 0.113 | Φ2 (fluorescence quantum yield) ([1]; solvent DCM): 0.105 | Φ1 (fluorescence quantum yield) ([1]; solvent DMSO): 0.004 | Φ2 (fluorescence quantum yield) ([1]; solvent DMSO): 0.005 | Φ1 (fluorescence quantum yield) ([1]; solvent Ethanol): 0.010 | Φ2 (fluorescence quantum yield) ([1]; solvent Ethanol): 0.009 | Φ1 (fluorescence quantum yield) ([1]; solvent Methanol): 0.005 | Φ2 (fluorescence quantum yield) ([1]; solvent Methanol): 0.004 | Φ1 (fluorescence quantum yield) ([1]; solvent THF): 0.036 | Φ2 (fluorescence quantum yield) ([1]; solvent THF): 0.034 | Φ1 (fluorescence quantum yield) ([1]; solvent Water): 0.001 | Φ2 (fluorescence quantum yield) ([1]; solvent Water): 0.002 | Δλ1 ([2]; solvent DCM): 87 | Δλ1 ([2]; solvent DMSO): 90 | Δλ1 ([2]; solvent Ethanol): 87 | Δλ1 ([2]; solvent Methanol): 90 | Δλ1 ([2]; solvent THF): 86 | Δλ1 ([2]; solvent Water): 93 | Δλ2 ([2]; solvent DCM): 162 | Δλ2 ([2]; solvent DMSO): 151 | Δλ2 ([2]; solvent Ethanol): 163 | Δλ2 ([2]; solvent Methanol): 166 | Δλ2 ([2]; solvent THF): 156 | Δλ2 ([2]; solvent Water): 171 | ε1 (molar extinction coefficient) ([2]; solvent DCM): 3.1 cm^−1M | ε2 (molar extinction coefficient) ([2]; solvent DCM): 2.1 cm^−1M | λabs1 ([2]; solvent DCM): 528 nm | λbs2 ([2]; solvent DCM): 453 nm | λem ([2]; solvent DCM): 615 nm | ε1 (molar extinction coefficient) ([2]; solvent DMSO): 3.3 cm^−1M | ε2 (molar extinction coefficient) ([2]; solvent DMSO): 2.2 cm^−1M | λabs1 ([2]; solvent DMSO): 521 nm | λbs2 ([2]; solvent DMSO): 460 nm | λem ([2]; solvent DMSO): 611 nm | ε1 (molar extinction coefficient) ([2]; solvent Ethanol): 3.4 cm^−1M | ε2 (molar extinction coefficient) ([2]; solvent Ethanol): 2.5 cm^−1M | λabs1 ([2]; solvent Ethanol): 528 nm | λbs2 ([2]; solvent Ethanol): 452 nm | λem ([2]; solvent Ethanol): 615 nm | ε1 (molar extinction coefficient) ([2]; solvent Methanol): 3.4 cm^−1M | ε2 (molar extinction coefficient) ([2]; solvent Methanol): 2.5 cm^−1M | λabs1 ([2]; solvent Methanol): 527 nm | λbs2 ([2]; solvent Methanol): 451 nm | λem ([2]; solvent Methanol): 617 nm | ε1 (molar extinction coefficient) ([2]; solvent THF): 4.0 cm^−1M | ε2 (molar extinction coefficient) ([2]; solvent THF): 2.0 cm^−1M | λabs1 ([2]; solvent THF): 523 nm | λbs2 ([2]; solvent THF): 453 nm | λem ([2]; solvent THF): 609 nm | ε1 (molar extinction coefficient) ([2]; solvent Water): 2.5 cm^−1M | ε2 (molar extinction coefficient) ([2]; solvent Water): 1.9 cm^−1M | λabs1 ([2]; solvent Water): 525 nm | λbs2 ([2]; solvent Water): 447 nm | λem ([2]; solvent Water): 618 nm

CCN(CC)C(=C\C1=[N+](CC)c2ccccc2C1(C)C)/C=C/C=C1/N(CC)c2ccccc2C1(C)C [Dye IId]
Φ1 (fluorescence quantum yield) ([1]; solvent DCM): 0.124 | Φ2 (fluorescence quantum yield) ([1]; solvent DCM): 0.085 | Φ1 (fluorescence quantum yield) ([1]; solvent DMSO): 0.004 | Φ2 (fluorescence quantum yield) ([1]; solvent DMSO): 0.004 | Φ1 (fluorescence quantum yield) ([1]; solvent Ethanol): 0.009 | Φ2 (fluorescence quantum yield) ([1]; solvent Ethanol): 0.009 | Φ1 (fluorescence quantum yield) ([1]; solvent Methanol): 0.005 | Φ2 (fluorescence quantum yield) ([1]; solvent Methanol): 0.005 | Φ1 (fluorescence quantum yield) ([1]; solvent THF): 0.030 | Φ2 (fluorescence quantum yield) ([1]; solvent THF): 0.022 | Φ1 (fluorescence quantum yield) ([1]; solvent Water): 0.001 | Φ2 (fluorescence quantum yield) ([1]; solvent Water): 0.001 | Δλ1 ([2]; solvent DCM): 88 | Δλ1 ([2]; solvent DMSO): 92 | Δλ1 ([2]; solvent Ethanol): 94 | Δλ1 ([2]; solvent Methanol): 96 | Δλ1 ([2]; solvent THF): 87 | Δλ1 ([2]; solvent Water): 99 | Δλ2 ([2]; solvent DCM): 158 | Δλ2 ([2]; solvent DMSO): 140 | Δλ2 ([2]; solvent Ethanol): 157 | Δλ2 ([2]; solvent Methanol): 158 | Δλ2 ([2]; solvent THF): 154 | Δλ2 ([2]; solvent Water): 152 | ε1 (molar extinction coefficient) ([2]; solvent DCM): 4.3 cm^−1M | ε2 (molar extinction coefficient) ([2]; solvent DCM): 2.9 cm^−1M | λabs1 ([2]; solvent DCM): 523 nm | λbs2 ([2]; solvent DCM): 453 nm | λem ([2]; solvent DCM): 611 nm | ε1 (molar extinction coefficient) ([2]; solvent DMSO): 3.9 cm^−1M | ε2 (molar extinction coefficient) ([2]; solvent DMSO): 2.7 cm^−1M | λabs1 ([2]; solvent DMSO): 508 nm | λbs2 ([2]; solvent DMSO): 460 nm | λem ([2]; solvent DMSO): 600 nm | ε1 (molar extinction coefficient) ([2]; solvent Ethanol): 3.5 cm^−1M | ε2 (molar extinction coefficient) ([2]; solvent Ethanol): 2.5 cm^−1M | λabs1 ([2]; solvent Ethanol): 516 nm | λbs2 ([2]; solvent Ethanol): 453 nm | λem ([2]; solvent Ethanol): 610 nm | ε1 (molar extinction coefficient) ([2]; solvent Methanol): 3.9 cm^−1M | ε2 (molar extinction coefficient) ([2]; solvent Methanol): 2.8 cm^−1M | λabs1 ([2]; solvent Methanol): 513 nm | λbs2 ([2]; solvent Methanol): 451 nm | λem ([2]; solvent Methanol): 609 nm | ε1 (molar extinction coefficient) ([2]; solvent THF): 4.1 cm^−1M | ε2 (molar extinction coefficient) ([2]; solvent THF): 2.1 cm^−1M | λabs1 ([2]; solvent THF): 517 nm | λbs2 ([2]; solvent THF): 450 nm | λem ([2]; solvent THF): 604 nm | ε1 (molar extinction coefficient) ([2]; solvent Water): 2.9 cm^−1M | ε2 (molar extinction coefficient) ([2]; solvent Water): 2.3 cm^−1M | λabs1 ([2]; solvent Water): 501 nm | λbs2 ([2]; solvent Water): 448 nm | λem ([2]; solvent Water): 600 nm
